Test system: NOD/SCID mice
Test: In vivo analysis of homing of CFSE-labeled cells to bone marrow
From the text: FIGS. 1a-1i are a graphic representation of flow cytometry analysis of the effect of nicotinamide on homing of hematopoietic stem cells into bone marrow of NOD/SCID mice. Non-cultured mononuclear cells or their entire progeny following 3-week expansion with cytokines and nicotinamide (cytokines+NA), or cytokines alone (cytokines) were labeled with CFSE and infused into sublethally irradiated NOD/SCID mice (10×10^6 cells/mouse for the non-cultured group containing 5×10^4 CD34+ cells and the total progeny of 5×10^4 CD34+ cells following 3-week expansion with or without nicotinamide; 20×10^6 cells/mouse containing 180×10^4 CD34+ cells). FIG. 1a is a histogram of the results of flow cytometry of recipient's bone marrow cells showing homing of CFSE+/CD34+ cells after transplantation. FIG. 1b is a histogram of the results of flow cytometry of recipient's bone marrow cells showing homing of total CFSE+ cells after transplantation. Homing of human cells is presented as number of positive events (cytometry) per 100,000 BM cells analyzed. Each bar represents the average ±SE of 3 independent experiments (6-7 mice/experimental group). […] Total human cells that home to the BM are gated (see area R2) based on low side scatter (y axis) and log fluorescence distribution of CFSC expression (x axis) (FIGS. 1c-1f). The bright fluorescence of CFSE was sufficient to separate labeled human cells from unlabeled murine cells by at least 1 log. Cells gated in R2 were then analyzed for CFSE (x axis) and CD34-APC (y axis) (FIGS. 1g-1i). […] After labeling, cells were washed three times in PBS supplemented with 10% FCS and analyzed by flow cytometry for fluorescence intensity, then injected intravenously into sublethally irradiated NOD/SCID mice (10-20 million cells per mouse). […] Homing of human cells was detected by flow cytometry via visualization of CFSE-stained cells over a background of unlabeled murine cells. The bright fluorescence of CFSE was sufficient to separate labeled human cells from unlabeled murine cells by at least 1 log. […]

NC(=O)c1cccnc1 [nicotinamide]
homing of CD34+ cells to bone marrow relative to non-cultured CD34+ cells (3-week culture with cytokines + nicotinamide, 24 hours post transplantation, n=21, p<0.05): 6 fold
homing of cultured cells (MNC) compared to nicotinamide-untreated cells (3-week culture with cytokines + nicotinamide, total CFSE+ cells, 24 hours post transplantation, n=21, p<0.05): 2 fold
homing to bone marrow over identical cells cultured without nicotinamide (summary statement on Example 2, mononuclear cells exposed to nicotinamide before transplantation): sixfold
